Consider five compounds from patent US7884081B2, “Methods of modulating tubulin deacetylast activity” (The J. David Gladstone Institutes, priority 2002, dated 2011).

No end group written: not given here.

Assay [1] relates to acetylated tubulin in HeLa, 293T and HepG2 cells. Briefly: Microtubule destabilizing drug treatment, western blot for acetylated tubulin. In kind it is cell-based. The conditions noted are these: 10 μg/mL colchicine or 1 μg/mL nocodazole for 6 hours.
Text: Lysates were equilibrated by total protein concentration and were separated on 10% SDS-PAGE gels and western blotted as described above.
Cells were harvested and lysates separated by SDS-PAGE and western blotting using specific antisera for acetylated tubulin and tubulin.
In assay [2] the target is T1, SIRT2 (Homo sapiens, UniProt Q8IXJ6).
T1 sequence (Q8IXJ6 1-389): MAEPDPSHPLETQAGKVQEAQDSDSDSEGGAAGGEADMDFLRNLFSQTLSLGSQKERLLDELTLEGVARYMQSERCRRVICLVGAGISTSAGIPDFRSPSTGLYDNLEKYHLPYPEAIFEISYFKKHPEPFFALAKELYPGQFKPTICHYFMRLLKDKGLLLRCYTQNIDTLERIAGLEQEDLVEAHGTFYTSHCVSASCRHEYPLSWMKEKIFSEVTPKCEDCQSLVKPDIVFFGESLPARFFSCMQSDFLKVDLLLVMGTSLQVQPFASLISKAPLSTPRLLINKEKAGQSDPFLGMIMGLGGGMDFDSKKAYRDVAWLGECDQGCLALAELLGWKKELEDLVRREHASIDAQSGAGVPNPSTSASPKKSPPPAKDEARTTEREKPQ
Briefly: In vitro HDAC activity assay with recombinant protein (ribavirin). The assay is classed as biochemical. Also on record: 6xHis; factor Xa protease cleavage site; made in house; host or cells: E. coli DH5αFIQ. The protocol:
(§1) Inhibitory activity of ribavirin against SIRT2 and SIRT3 proteins was tested using recombinant SIRT2 proteins and an in vitro assay. Ribavirin was incubated with recombinant protein only in buffer for 10 minutes; then NAD and substrate were added to start the reaction. Reactions were incubated for 2 hours at room temperature. Reactions were stopped by adding 25 μL stop buffer (0.1M HC1, 0.16M acetic acid) and vortexing briefly. Ethyl acetate extraction isolated any liberated acetyl groups. Ethyl acetate (0.5 ml) was added, mixture was vortexed for 15 seconds and spun at 14,000 rpm for 5 minutes. The upper phase (0.4 ml) was added to 5 mL scintillation fluid (Econofluor-2; Packard) and counted.

Another assay deals with SIRT3 (Homo sapiens, UniProt Q9NTG7). The description is as above. The assay is classed as biochemical. The protocol:
as §1

The target in assay [3] is T1, SIRT2. Description: Histone deacetylase assay, immunoprecipitated SIRT2-FLAG on [3H]acetylated histone H4 peptide. In kind it is biochemical. The protocol:
HEK 293T cells were transfected by calcium phosphate DNA precipitation method and lysed 48 hours post-transfection in low stringency lysis buffer (50 mM Tris-HCl, pH 7.5, 0.5 mM EDTA, 0.5% NP-40, 150 mM NaCl) in the presence of protease inhibitor cocktail (Complete, Roche Molecular Biochemicals, Indianapolis, Ind.). FLAG tagged proteins were immunoprecipitated with anti-FLAG M2 agarose affinity gel (Sigma, St. Louis, Mo.) and GFP-tagged proteins were immunoprecipitated with anti-GFP monoclonal antibody (Sigma, St. Louis, Mo.) in the presence of Protein G Sepharose (Amersham Pharmacia Biotech, Inc., Piscataway, N.J.) for 2 hours at 4° C. Immunoprecipitated material was washed 3 times in low stringency lysis buffer and one time in SIRT2 deacetylase buffer (50 mM Tris-HCl, pH 9.0, 4 mM MgCl2, and 0.2 mM dithiothreitol (DTT)).
Immunoprecipitated material and recombinant SIRT2 were resuspended in 100 μL of SIRT2 deacetylase buffer containing NAD (Sigma, St. Louis, Mo.) and [^3H] acetylated histone H4 peptide (a.a. 1-23) (Emiliani et al., 1998). TSA (WACO BioProducts, Richmond, Va.) was resuspended in dimethyl sulfoxide (DMSO) was further diluted in DMSO and added to reactions to desired concentration. […] After centrifugation for 5 minutes, 400 μL of the ethyl acetate fraction was mixed with 5 ml scintillation fluid and counted.

Assay [4] has as its target T1, SIRT2. Briefly: Ex vivo tubulin deacetylation assay, SIRT2-FLAG with cellular lysate, western blot for acetylated tubulin. In kind it is biochemical. The conditions noted are these: 1 mM NAD. On the procedure: Immunoprecipitations were resuspended in 100 μl SIRT deacetylase buffer containing 50 μg total cellular lysate from untransfected HEK 293T cells and 1 mM NAD. Reactions containing 400 nM TSA or 5 mM nicotinamide (Sigma, St. Louis, Mo.) were pre-incubated at room temperature with all components of the reaction in the absence of NAD for 10 minutes, Following the pre-incubation, the enzymatic reactions were started with the addition of NAD followed by incubation for 2 hours at room temperature with constant agitation. Reactions were stopped by the addition of 50 μl 6× SDS-polyacrylamide gel electrophoresis (PAGE) buffer. Beads were pelleted by centrifugation at 14,000 rpm for 10 minutes and 10 μl of each supernatant was separated on 10% SDS-PAGE gels and western blotted as described above.
In this assay, HEK 293T cells were transfected with SIRT2-FLAG followed by immunoprecipitation of the FLAG-tagged protein (FIG. 3A). The immunoprecipitated material was separated into two fractions. The first fraction was used to measure HDAC activity using the acetylated histone H4 peptide. […] The extent of acetylation/deacetylation of α-tubulin was determined by western blotting analysis using a specific antisera for acetylated α-tubulin. […]

Assay [5] concerns GFP-MIZ-1 sub-cellular distribution in HeLa cells. Briefly: GFP-MIZ-1 sub-cellular localization by immunofluorescence in transfected HeLa cells. The assay is classed as cell-based. The conditions noted are these: for percentage of cells with GFP-MIZ-1 localized in the cytoplasm: TSA treatment.
Experimental: HeLa cells grown on coverslips were transfected with LipofectAMINE reagent (Gibco Invitrogen Corp., Carlsbad, Calif.) for 8 hours according to manufacturer's protocol or by calcium phosphate DNA precipitation method. Transfected cells were incubated for 12 hours with 400 nM TSA (WACO BioProducts, Richmond, Va.) 24 hours after transfection. Cells were washed twice for 10 minutes in PBS and fixed for 10 minutes in 4% formaldehyde (EMS, Ft. Washington, Pa.) followed by permeabilization for 10 minutes in 0.5% Triton-X-100 in PBS. Following three washes for 10 minutes in PBS, cells were incubated for 10 minutes in 10% BSA, and incubated for 1 hour with anti-acetylated tubulin 6-11B-1, anti-tubulin B-5-1-2 diluted 1:1000, or anti-FLAG M2 diluted 1:500 in 0.1% TWEEN-20™ non-ionic detergent. Cells were washed three times in 0.1% TWEEN-20™ non-ionic detergent, followed by incubation with goat anti-mouse IgG (Fc specific) TRITC-conjugated antibody (Sigma, St. Louis) diluted 1:100 in 0.1% TWEEN-20™ non-ionic detergent. Following incubation cells were incubated for 5 minutes in 20 mg/ml 4′,6′-diamidino-2-phenylindole hydrochloride (DAPI) washed three times in phosphate-buffered saline (PBS), once in ddH2O, and mounted with Gel Mount (Biomeda Corp., Foster City, Calif.). Slides were visualized on a Nikon E600 microscope system equipped with a SPOT 2 Digital Camera. Confocal images were acquired by laser-scanning confocal microscopy with an Olympus BX60 microscope equipped with a Radiance 2000 confocal setup (BioRad, Hercules, Calif.).
Transfected cells were counted as either GFP-MIZ-1 localized completely nuclear or with partial cytoplasmic retention. Cell counts were derived from inspection of at least 150 transfected cells from six microscopic fields. […] Data set is representative of three independent experiments.
The next assay has as its system α-tubulin. The conditions noted are these: treatment of cells with TSA; cited from earlier work.
Assay [6] has as its target T1, SIRT2. Description: Tubulin peptide deacetylation kinetics (HPLC). Conditions: SIRT2, 800 μM NAD, 37° C. In kind it is biochemical. The arrangement: 6xHis; factor Xa protease cleavage site; made in house; host or cells: E. coli DH5αFIQ.
The next assay concerns the target recombinant Hst2p (Saccharomyces cerevisiae, UniProt P53686). Description: Tubulin peptide deacetylation kinetics (HPLC). Conditions: 500 μM NAD, 37° C. The assay is classed as biochemical, yeast. On the procedure:
Increasing concentrations of tubulin peptide (20-900 μM), and 800 μM NAD were reacted in the presence of 0.8 to 1 μM recombinant SIRT2 in 50 mM Tris, pH 7.5, 1 mM DTT, and 10% methanol at 37° C. For Hst2p reactions, tubulin peptides and 500 μM NAD were reacted in the presence of 9 to 19 μM recombinant Hst2p under the same conditions. Reactions were quenched with trifluoroacetic acid (TFA) to a final concentration of 1%. Time points were chosen such that initial velocity conditions were observed. Samples were injected into the high performance liquid chromatography (HPLC) with a Beckman C18 analytical column. Upon injection, the system was run isocratically with solvent A (0.05% TFA in H2O), followed by a gradient of 0-10% solvent B (0.02% TFA in CH3CN) for 4 minutes, and followed by a gradient of 10-23% solvent B for 23 minutes. Deacetylated and acetylated peptides eluted at 16% and 18% CH3CN, respectively. Elution of substrates and products were monitored by measuring the absorbance at 214 nm, and corresponding peaks were integrated using the Beckman System Gold Nouveau software. The amount of product was quantified by calculating the percentage of the deacetylated tubulin peptide from the total tubulin peptide based upon their integration values. […]

The next assay deals with SIRT1 protein. The conditions noted are these: cited from earlier work.

Sequence of recombinant Hst2p (P53686 whole entry): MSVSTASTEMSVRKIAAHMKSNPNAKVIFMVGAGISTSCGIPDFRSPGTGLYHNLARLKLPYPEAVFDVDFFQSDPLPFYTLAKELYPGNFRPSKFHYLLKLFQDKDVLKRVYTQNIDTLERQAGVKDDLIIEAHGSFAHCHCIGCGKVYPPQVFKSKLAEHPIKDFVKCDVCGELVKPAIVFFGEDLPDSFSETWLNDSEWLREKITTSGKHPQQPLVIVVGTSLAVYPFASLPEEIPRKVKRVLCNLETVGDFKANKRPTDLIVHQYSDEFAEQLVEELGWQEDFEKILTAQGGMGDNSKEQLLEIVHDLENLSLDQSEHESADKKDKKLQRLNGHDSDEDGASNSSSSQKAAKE
Sequence of SIRT3 (Q9NTG7 whole entry): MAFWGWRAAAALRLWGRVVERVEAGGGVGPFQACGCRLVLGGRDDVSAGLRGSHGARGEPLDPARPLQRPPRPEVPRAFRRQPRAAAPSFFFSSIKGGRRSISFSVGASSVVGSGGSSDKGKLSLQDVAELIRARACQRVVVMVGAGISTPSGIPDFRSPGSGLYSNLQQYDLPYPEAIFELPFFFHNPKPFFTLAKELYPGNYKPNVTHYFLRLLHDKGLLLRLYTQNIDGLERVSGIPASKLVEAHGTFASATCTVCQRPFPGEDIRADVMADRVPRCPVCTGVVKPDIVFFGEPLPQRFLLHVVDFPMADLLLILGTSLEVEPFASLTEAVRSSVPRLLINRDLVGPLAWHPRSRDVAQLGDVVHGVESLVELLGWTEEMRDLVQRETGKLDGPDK

For the compound `COC(=O)Nc1nc2ccc(C(=O)c3cccs3)cc2[nH]1` [nocodazole], in [1], the “acetylation state of tubulin” value is “tubulin deacetylation”.

As to `NC(=O)c1ncn([C@@H]2O[C@H](CO)[C@@H](O)[C@H]2O)n1` [Ribavirin, 1-β-D-ribofuranosyl-1H-1,2,4-triazole-3-carboxamide], the inhibition at 25 µM at SIRT2 [2] was around 50%. For the same compound, the “effect on SIRT3 in vitro HDAC activity” value at SIRT3 was “no effect”.

`CC(/C=C/C(=O)NO)=C\[C@@H](C)C(=O)c1ccc(N(C)C)cc1` [TSA, Trichostatin A]: the “HDAC activity of SIRT2” value at SIRT2 [3] (immunoprecipitated SIRT2-FLAG, 1 mM NAD, increasing concentrations of TSA (100-1600 nM)) is “No change”. On SIRT2 [4] (400 nM TSA), the “tubulin deacetylation by SIRT2” value was “had no effect”. For the same compound, in assay [5] (HeLa cells treated with TSA (400 nM, 12 hours)), the “localization of GFP-MIZ-1” value is given as “distinct shift in localization of GFP-MIZ-1 from the nucleus to the cytoplasm”. Besides, the “percentage of cells with GFP-MIZ-1 localized in the cytoplasm” value in [5] (co-transfected with FLAG empty vector) is 36.9%; in assay [5] (co-transfected with SIRT2-FLAG wild-type), 11.2%; in [5] (co-transfected with catalytically inactive SIRT2-FLAG N168A) it was 35.3%. Further, in the assay with α-tubulin, the “acetylation of α-tubulin in cells” value is “induces hyperacetylation”.

As for “acetylated tubulin peptide: 9-amino acid synthetic α-tubulin peptide (MPSD(AcK)TIGG), acetylated on lysine-40 (MPSDK(Ac)TIGG)”, in the assay with SIRT2 [6], the V/K worked out at 894 ± 100 M⁻¹ s⁻¹ and the kcat stood at 0.144 ± 0.005 s⁻¹. Further, in the assay with recombinant Hst2p, the V/K was found to be 14.9 M⁻¹ s⁻¹ and the kcat came out at 0.00254 ± 0.0003 s⁻¹.

As to `NC(=O)c1cccnc1` [nicotinamide], on SIRT2 [3] (increasing concentrations of nicotinamide, 156 μM to 20 mM), the “HDAC activity of SIRT2” value is recorded as “dose dependent decrease”. Further, the “inhibition of SIRT1” value with SIRT1 protein is “effective inhibitor”. On SIRT2 [4] (5 mM nicotinamide), the “tubulin deacetylation by SIRT2” value was “completely inhibited”.
